Test results taken from patent US8697655B2, “Method of selecting polypeptide sequence, and metal oxide or silicon-containing compound binding peptide and use thereof” (Riken, priority 2010, dated 2014).

Experiment: Binding of P-EGFs to TiO2 plate, anti-EGF antibody chemiluminescence detection
Settings: about 2.0 ng, 10 μl in TBS pH 7.5; washed 3 times with TBS-T; anti-human EGF antibody and HRP secondary
Protocol: Subsequently, in accordance with a scheme in the left in FIG. 4-2, various P-EGF solutions (about 2.0 ng, 10 μl in TBS, pH 7.5) were added on a TiO2 plate (a plate produced by vapor deposition of titanium on the surface of a glass plate with a diameter of 15 mm and a thickness of 0.6 mm (manufactured by Matsunami Glass Ind., Ltd.) (the vapor deposition step was requested to Osaka Vacuum Industrial Co., Ltd.) was used); and a washing operation (TBS-T buffer, pH 7.5) was repeated 3 times. And, after blocking with 0.1% BSA solution, an anti-human EGF antibody was added as a primary antibody. Furthermore, after the washing operation (TBS-T buffer, pH 7.5) was repeated 3 times, an anti-mouse IgG antibody HRP conjugate was added as a secondary antibody. At the end, using a luminescent phenomenon by a reaction between a chemiluminescence reagent and HRP as an index, the presence of protein immobilized on the TiO2 plate was detected. […]
First, in accordance with a scheme in the left in FIG. 7-1, various P-EGF solutions (about 2.0 ng, 10 μl in TBS, pH 7.5) were added on a TiO2 plate and a washing operation (TBS-T buffer, pH 7.5) was repeated 3 times. […] At the end, using a luminescent phenomenon by a reaction between a chemiluminescence reagent and HRP as an index, the presence of protein immobilized on the TiO2 plate was detected.

TiO2 plate binding (luminescent phenomenon of protein immobilized on the plate): did not exhibit TiO2 binding
Substance: EGF: EGF to which a peptide was not fused
